tested on: pentagastrin-stimulated acid secretion of the perused rat stomach; test: Secretion-inhibiting action on the perfused rat stomach (pentagastrin-stimulated, in vivo); details: anesthetized CD rat, dose 3 μmol/kg i.v.
Text: Testing of the Secretion-Inhibiting Action on the Perfused Rat Stomach
The abdomen of anesthetized rats (CD rat, female, 200-250 g; […] i.m. urethane) was opened after tracheotomy by means of a median upper abdominal incision and a PYC catheter was fixed transorally in the esophagus and another via the pylorus such that the ends of the tube just projected into the gastric lumen. The catheter leading from the pylorus led outwards into the right abdominal wall through a side opening.
After thorough rinsing (about 50-100 ml), warm physiological NaCl solution at 37° C. was continuously passed through the stomach (0.5 ml/min. pH 6.8-6.9; Braun-Unita I). The pH (pH meter 632, glass electrode EA 147; φ=5 mm, Metrohm) and, by titration with a freshly prepared 0.01 N NaOH solution to pH 7 (Dosimat 665 Metrohm), the secreted HCl were determined in the effluent in each case collected at an interval of 15 minutes.
The gastric secretion was stimulated by continuous infusion of 1 μg/kg (=1.65 ml/h) of I.v. pentagastrin (left femoral vein) about 30 min after the end of the operation (i.e after determination of 2 preliminary fractions). The substances to be tested were administered intravenously in 1 ml/kg liquid volumes 60 min after the start of the pentagastrin continuous infusion.
The body temperature of the animals was kept at a constant 37.8-38° C. by infrared irradiation and heat pads (automatic, stepless control by means of a rectal temperature sensor).

Structure (SMILES)	Inhibition of acid secretion
CO[C@H]1c2ccn3c(C)c(C)nc3c2N[C@H](c2ccccc2)[C@H]1O [Example 2, (7S, 8R, 9R)-2,3-Dimethyl-8-hydroxy-7-methoxy-9-phenyl-7,8,9,10-tetrahydro-imidazo[1,2-h]-[1,7]naphythyridine]	100%
CCO[C@@H]1c2ccn3c(C)c(C)nc3c2N[C@H](c2ccccc2)[C@H]1O [Example 4, (7R, 8R, 9R)-2,3Dimethyl-7-ethoxy-8-hydroxy-phenyl-7,8,9,10-tetrahydro-imidazo[1,2-h]-[1,7]naphythryridine]	100%
CO[C@@H]1[C@@H](c2ccccc2)Nc2c(ccn3c(C)c(C)nc23)[C@H]1OC [Example 8]	100%
CO[C@@H]1c2ccn3c(C)c(C)nc3c2N[C@H](c2ccccc2)[C@H]1O [Example 1]	100%
COCCO[C@H]1c2ccn3c(C)c(C)nc3c2N[C@H](c2ccccc2)[C@H]1O [Example 6, (7S, 8R, 9R)-2,3-Dimethyl-8-hydroxy-7-(2-methoxyethoxy)-9-phenyl-7,8,9,10-tetrahydro-imiazo[1,2-h][1,7]naphthyridine]	100%

same assay, conditions: iv, anesthetized CD rat, dose 3 μmol/kg i.v.

Structure (SMILES)	inhibition at 3 µmol/kg
Cc1nc2c3c(ccn2c1C)[C@H](OC(C)C)[C@H](O)[C@@H](c1ccccc1)N3 [Example 7, (7S, 8R, 9R)-2,3-Dimethyl-8-hydroxy-9-phenyl-7-(2-propoxy)-7,8,9,10-tetrahydro-imidazo[1,2-h][1,7]naphthyridine]	100%
COCCO[C@@H]1c2ccn3c(C)c(C)nc3c2N[C@H](c2ccccc2)[C@H]1O [Example 5, (7R, 8R, 9R)-2,3-Dimethyl-8-hydroxy-7-(2-methoxyethoxy)-9-phenyl-7,8,9,10-tetrahydro-imidazo[1,2-h][1,7]naphthyridine]	100%
CCO[C@@H]1c2ccn3c(C)c(C)nc3c2N[C@H](c2ccccc2)[C@H]1O [Example 3, (7R, 8R, 9R)-2,3-Dimethyl-7-ethoxy-8-hydroxy-9-phenyl-7,8,9,10-tetrahydro-imidazo[1,2-h]-[1,7]naphthyridine]	100%

tested on: not given; test: not given; details: not given

Structure (SMILES)	melting point
CO[C@H]1c2ccn3c(C)c(C)nc3c2N[C@@H](c2ccccc2)[C@@H]1O [Example 1B, (7S, 8S, 9S)-2,3-Dimethyl-8-hydroxy-7-methoxy-9-phenyl-7,8,9,10-tetrahydro-imidazo[1,2-h]-[1,7]naphthyridine]	161 to 162 °C
Cc1nc2c3c(ccn2c1C)[C@H](OC(C)C)[C@H](O)[C@@H](c1ccccc1)N3 [Example 7, (7S, 8R, 9R)-2,3-Dimethyl-8-hydroxy-9-phenyl-7-(2-propoxy)-7,8,9,10-tetrahydro-imidazo[1,2-h][1,7]naphthyridine]	168 to 169 °C
CCO[C@@H]1c2ccn3c(C)c(C)nc3c2N[C@H](c2ccccc2)[C@H]1O [Example 3, (7R, 8R, 9R)-2,3-Dimethyl-7-ethoxy-8-hydroxy-9-phenyl-7,8,9,10-tetrahydro-imidazo[1,2-h]-[1,7]naphthyridine]	188 to 190 °C
CO[C@@H]1c2ccn3c(C)c(C)nc3c2N[C@@H](c2ccccc2)[C@@H]1O [Example 2B, (7R, 8S, 9S)-2,3-Dimethyl-8-hydroxy-7-methoxy-9-phenyl-7,8,9,10-tetrahydro-imidazo[1,2-h]-[1,7]naphthyridine]	171 to 172 °C

From US6696460B2, “Tetrahydropyridoethers” (Atlanta Pharma AG, priority 1998, dated 2004)
